Legend:
[1] = tested on: Human whole blood; assay: IRAK4 Whole Blood Assay; assay type: cell-based; settings: stimulated with TLR2 agonist lipoteichoic acid 10 μg/mL for 5 hours, IL-6 levels
Procedure: Human whole blood containing the anti-coagulant ACD-A was plated in 384-well plate (25 μL/well) and incubated with compounds for 60 minutes at 37° C. in a 5% CO2 incubator. The blood was stimulated with a TLR2 agonist, 10 μg/mL final concentration of lipoteichoic acid (Invivogen, San Diego, CA) in 25 μL RPMI (Gibco) for 5 hours in a 5% CO2 incubator. At the end of the incubation, plates were centrifuged at 2300 rpm for 5 minutes. Supernatants were harvested and analyzed for IL-6 levels by Flow Cytometry beads assay (BD Biosciences, San Jose, CA).

[2] = biological target: T1, IRAK4 (Homo sapiens, UniProt Q9NWZ3); assay: IRAK4 Inhibition Assay; assay type: biochemical; settings: ATP 500 μM; fluoresceinated peptide 1.5 μM; IRAK4 0.6 nM; 60 min room temperature; Caliper LABCHIP
T1 sequence (Q9NWZ3 1-460): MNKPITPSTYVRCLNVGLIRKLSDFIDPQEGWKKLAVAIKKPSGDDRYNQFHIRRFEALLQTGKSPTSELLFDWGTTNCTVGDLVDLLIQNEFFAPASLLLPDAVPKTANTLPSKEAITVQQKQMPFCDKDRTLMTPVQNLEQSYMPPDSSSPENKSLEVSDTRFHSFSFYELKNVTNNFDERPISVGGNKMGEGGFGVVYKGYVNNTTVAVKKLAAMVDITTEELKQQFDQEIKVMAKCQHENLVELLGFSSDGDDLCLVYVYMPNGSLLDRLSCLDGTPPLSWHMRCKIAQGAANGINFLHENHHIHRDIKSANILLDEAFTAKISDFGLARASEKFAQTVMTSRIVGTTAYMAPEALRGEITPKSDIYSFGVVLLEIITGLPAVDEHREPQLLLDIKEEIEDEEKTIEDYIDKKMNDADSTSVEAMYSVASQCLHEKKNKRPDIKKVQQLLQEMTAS
Procedure: The assays were performed in U-bottom 384-well plates. The final assay volume was 30 μL prepared from 15 μL additions of enzyme and substrates (fluoresceinated peptide and ATP) and test compounds in assay buffer (20 mM HEPES pH 7.2, 10 mM MgCl2, 0.015% Brij 35 and 4 mM DTT). The reaction was initiated by the combination of IRAK4 with substrates and test compounds. The reaction mixture was incubated at room temperature for 60 min. and terminated by adding 45 μL of 35 mM EDTA to each sample. The reaction mixture was analyzed on the Caliper LABCHIP® 3000 (Caliper, Hopkinton, MA) by electrophoretic separation of the fluorescent substrate and phosphorylated product. Inhibition data were calculated by comparison to no enzyme control reactions for 100% inhibition and vehicle-only reactions for 0% inhibition. The final concentrations of reagents in the assays are ATP, 500 μM; FL-IPTSPITTTYFFFKKK peptide 1.5 μM; IRAK4, 0.6 nM; and DMSO, 1.6%.

| Structure (SMILES) | EC50 [1] | IC50 [2] |
| --- | --- | --- |
| CC(C)Nc1c(C(=O)NC[C@@H](F)C(C)(C)O)cnc2c1[nH]c1cc(C#N)ccc12 [Example 1, (R)-7-cyano-N-(2-fluoro-3-hydroxy-3-methylbutyl)-4-(isopropylamino)-5H-pyrido [3,2-b]indole-3-carboxamide] | 430 nM | 2 nM |
| CCNc1c(C(=O)NC[C@@H](F)C(C)(C)O)cnc2c1[nH]c1cc(C#N)ccc12 [Example 2, (R)-7-cyano-4-(ethylamino)-N-(2-fluoro-3-hydroxy-3-methylbutyl)-5H-pyrido[3,2-b]indole-3-carboxamide] | 1300 nM | 1.6 nM |
| CC(C)(O)[C@H](F)CNC(=O)c1cnc2c([nH]c3cc(C#N)ccc32)c1NC1CC(F)(F)C1 [Example 3, (R)-7-cyano-4-((3,3-difluorocyclobutyl)amino)-N-(2-fluoro-3-hydroxy-3-methylbutyl)-5H-pyrido[3,2-b]indole-3-carboxamide] | 2470 nM | 19 nM |
| CC(C)(O)[C@H](F)CNC(=O)c1cnc2c([nH]c3cc(C#N)ccc32)c1NC1CCC1 [Example 4, (R)-7-cyano-4-(cyclobutylamino)-N-(2-fluoro-3-hydroxy-3-methylbutyl)-5H-pyrido[3,2-b]indole-3-carboxamide] | 1990 nM | 2 nM |
| CC(C)Nc1c(C(=O)NCCC(C)(C)O)cnc2c1[nH]c1cc(C#N)ccc12 [Example 5, 7-cyano-N-(3-hydroxy-3-methylbutyl)-4-(isopropylamino)-5H-pyrido[3,2-b]indole-3-carboxamide] | 1440 nM | 3.8 nM |
| CC(C)Nc1c(C(=O)N[C@H]2CC[C@H](O)CC2)cnc2c1[nH]c1cc(C#N)ccc12 [Example 10, 7-cyano-N-((1R,4R)-4-hydroxycyclohexyl)-4-(isopropylamino)-5H-pyrido[3,2-b]indole-3-carboxamide] | 2890 nM | 12 nM |
| CC(C)Nc1c(C(=O)N[C@H]2CC[C@H](N)CC2)cnc2c1[nH]c1cc(C#N)ccc12 [Example 12, N-((1R,4R)-4-aminocyclohexyl)-7-cyano-4-(isopropylamino)-5H-pyrido[3,2-b]indole-3-carboxamide] | 2720 nM | 8.6 nM |
| CC(=O)N[C@H]1CC[C@H](NC(=O)c2cnc3c([nH]c4cc(C#N)ccc43)c2NC(C)C)CC1 [Example 13, N-((1R,4R)-4-acetamidocyclohexyl)-7-cyano-4-(isopropylamino)-5H-pyrido[3,2-b]indole-3-carboxamide] | 2210 nM | 3.7 nM |
| CC(C)Nc1c(C(=O)NCc2cocn2)cnc2c1[nH]c1cc(C#N)ccc12 [Example 14, 7-cyano-4-(isopropylamino)-N-(oxazol-4-ylmethyl)-5H-pyrido[3,2-b]indole-3-carboxamide] | 3500 nM | 19 nM |
| Cc1cc(CNC(=O)c2cnc3c([nH]c4cc(C#N)ccc43)c2NC(C)C)on1 [Example 15, 7-cyano-4-(isopropylamino)-N-((3-methylisoxazol-5-yl)methyl)-5H-pyrido[3,2-b]indole-3-carboxamide] | 1450 nM | 16 nM |
| COCCNC(=O)c1cnc2c([nH]c3cc(C#N)ccc32)c1NC(C)C [Example 17, 7-cyano-4-(isopropylamino)-N-(2-methoxyethyl)-5H-pyrido[3,2-b]indole-3-carboxamide] | 4730 nM | 13 nM |
| CC(C)Nc1c(C(=O)NCc2nccs2)cnc2c1[nH]c1cc(C#N)ccc12 [Example 18, 7-cyano-4-(isopropylamino)-N-(thiazol-2-ylmethyl)-5H-pyrido[3,2-b]indole-3-carboxamide] | 8170 nM | 17 nM |
| CC(C)Nc1c(C(=O)NCc2ncn[nH]2)cnc2c1[nH]c1cc(C#N)ccc12 [Example 20, N-((1H-1,2,4-triazol-5-yl)methyl)-7-cyano-4-(isopropylamino)-5H-pyrido[3,2-b] indole carboxamide] | 1050 nM | 14 nM |
| CC(C)CCNC(=O)c1cnc2c([nH]c3cc(C#N)ccc32)c1NC(C)C [Example 21, 7-cyano-N-isopentyl-4-(isopropylamino)-5H-pyrido[3,2-b] indole carboxamide] | 1340 nM | 2.1 nM |
| CC(C)(O)[C@H](F)CNC(=O)c1cnc2c([nH]c3cc(C#N)ccc32)c1NC1COC1 [Example 22, (R)-7-cyano-N-(2-fluoro-3-hydroxy-3-methylbutyl)-4-(oxetanylamino)-5H-pyrido[3,2-b]indole-3-carboxamide] | 230 nM | 2.1 nM |
| CC(C)(O)[C@H](F)CNC(=O)c1cnc2c([nH]c3cc(C#N)ccc32)c1Nc1cnn(CC(F)F)c1 [Example 23, (R)-7-cyano-4-((1-(2,2-difluoroethyl)-1H-pyrazol-4-yl)amino)-N-(2-fluoro-3-hydroxy-3-methylbutyl)-5H-pyrido[3,2-b]indole-3-carboxamide] | > 10000 nM | 15 nM |
| CC(O)CCNC(=O)c1cnc2c([nH]c3cc(C#N)ccc32)c1NC(C)C (centres unmarked) [Example 25, 7-cyano-N-(3-hydroxybutyl)-4-(isopropylamino)-5H-pyrido[3,2-b]indole-3-carboxamide] | 1500 nM | 3.5 nM |
| CC(C)Nc1c(C(=O)NCCC(F)(F)F)cnc2c1[nH]c1cc(C#N)ccc12 [Example 27, 7-cyano-4-(isopropylamino)-N-(3,3,3-trifluoropropyl)-5H-pyrido[3,2-b]indole-3-carboxamide] | > 10000 nM | 13 nM |
| C[C@@H](CO)Nc1c(C(=O)NCCC(C)(C)O)cnc2c1[nH]c1cc(C#N)ccc12 [Example 30, (S)-7-cyano-N-(3-hydroxy-3-methylbutyl)-4-((1-hydroxypropan-2-yl)amino)-5H-pyrido[3,2-b]indole-3-carboxamide] | 3380 nM | 5.3 nM |
| CCCc1noc(-c2cnc3c([nH]c4cc(C#N)ccc43)c2NC(C)C)n1 [Example 72, 4-(isopropylamino)-3-(3-propyl-1,2,4-oxadiazol-5-yl)-5H-pyrido[3,2-b]indole-7-carbonitrile] | – | 360 nM |
| CC(C)CCn1cc(-c2cnc3c([nH]c4cc(C#N)ccc43)c2NC(C)C)nn1 [Example 73, 3-(1-isopentyl-1H-1,2,3-triazol-4-yl)-4-(isopropylamino)-5H-pyrido[3,2-b]indole-7-carbonitrile] | – | 1.5 nM |
| CC(C)Nc1c(-c2cc(C3CNCCO3)no2)cnc2c1[nH]c1cc(C#N)ccc12 (centres unmarked) [Example 78, 4-(isopropylamino)-3-(3-(morpholin-2-yl)isoxazol-5-yl)-5H-pyrido[3,2-b]indole-7-carbonitrile] | – | 26 nM |
| CC(C)Nc1c(-c2cc(C3CCCNC3)no2)cnc2c1[nH]c1cc(C#N)ccc12 (centres unmarked) [Example 79, 4-(isopropylamino)-3-(3-(piperidin-3-yl)isoxazol-5-yl)-5H-pyrido[3,2-b]indole-7-carbonitrile] | – | 22 nM |
| CC(C)Nc1c(C(=O)NC[C@@H](F)C(C)(C)O)cnc2[nH]c3ccc(C#N)cc3c12 [Example 81, (R)-6-cyano-N-(2-fluoro-3-hydroxy-3-methylbutyl)-4-(isopropylamino)-9H-pyrido [2,3-b]indole-3-carboxamide] | – | 170 nM |
| CC(C)Nc1c(C(=O)NCCC2CC2)cnc2[nH]c3ccc(C#N)cc3c12 [Example 82, 6-cyano-N-(2-cyclopropylethyl)-4-(isopropylamino)-9H-pyrido[2,3-b]indole-3-carboxamide] | – | 650 nM |
